# Reference: patent publication US20230399327A1, “HIGH ACTIVITY HPK1 KINASE INHIBITOR” (ADLAI NORTYE BIOPHARMA CO., LTD., priority 2020, published 2023)
# Target: HPK1 kinase (Homo sapiens (Human), UniProt Q92918)
# Assay: HPK1 kinase activity inhibition (ADP-Glo Kinase Assay)
# Format: biochemical
# Conditions: HPK1, MBP substrate, ATP, 25° C. 60 min
# Method: Test Example 1: Detection of Compound's Ability to Inhibit HPK1 Kinase Activity (Method 1)
# The specific operation is as follows: configure the enzymatic reaction system buffer (10 mM MOPS, pH 7.2, 5 mM β-glycerol-phosphate, 10 mM MgCl2, 0.8 mM EDTA, 2 mM EGTA, 0.1 mM DTT); the test compound (1 mM the compound stock solution in DMSO) was diluted with buffer to the highest concentration of 60 uM (containing 6% DMSO), and the compound with a concentration of 60 μM was initially diluted 5 times with a buffer containing 6% DMSO for a total of 8 points of gradient concentration; then dilute HPK1 kinase to 30 nM in buffer. Add 2 μl of HPK1 kinase diluent to each well of a Greiner 384-well microplate (Cat. No. 784075), and add 2 μl of buffer to the control well; add 1 μl of the diluted compound to the reaction well after brief centrifugation, and add 1 μl buffer solution containing 6% DMSO to the control well; after short centrifugation, place in a 25° C. constant temperature incubator (Shanghai Yiheng Scientific Instrument Co., Ltd., Cat. No.: LRH-150) and incubate for 20 minutes. Add 3 μl of reaction substrate (10 μM MBP and 20 μM ATP dissolved in distilled water) to each well, briefly centrifuge and incubate in a constant temperature incubator at 25° C. for 60 min, and use ADP-Glo Kinase Assay Kit to detect the enzymatic reaction activity, ADP-Glo Kinase Assay Kit detection is carried out according to the operating instructions of the kit. Data are described using the half maximal inhibitory concentration IC50 of the compound.
# HPK1 kinase, sequence (Q92918 whole entry): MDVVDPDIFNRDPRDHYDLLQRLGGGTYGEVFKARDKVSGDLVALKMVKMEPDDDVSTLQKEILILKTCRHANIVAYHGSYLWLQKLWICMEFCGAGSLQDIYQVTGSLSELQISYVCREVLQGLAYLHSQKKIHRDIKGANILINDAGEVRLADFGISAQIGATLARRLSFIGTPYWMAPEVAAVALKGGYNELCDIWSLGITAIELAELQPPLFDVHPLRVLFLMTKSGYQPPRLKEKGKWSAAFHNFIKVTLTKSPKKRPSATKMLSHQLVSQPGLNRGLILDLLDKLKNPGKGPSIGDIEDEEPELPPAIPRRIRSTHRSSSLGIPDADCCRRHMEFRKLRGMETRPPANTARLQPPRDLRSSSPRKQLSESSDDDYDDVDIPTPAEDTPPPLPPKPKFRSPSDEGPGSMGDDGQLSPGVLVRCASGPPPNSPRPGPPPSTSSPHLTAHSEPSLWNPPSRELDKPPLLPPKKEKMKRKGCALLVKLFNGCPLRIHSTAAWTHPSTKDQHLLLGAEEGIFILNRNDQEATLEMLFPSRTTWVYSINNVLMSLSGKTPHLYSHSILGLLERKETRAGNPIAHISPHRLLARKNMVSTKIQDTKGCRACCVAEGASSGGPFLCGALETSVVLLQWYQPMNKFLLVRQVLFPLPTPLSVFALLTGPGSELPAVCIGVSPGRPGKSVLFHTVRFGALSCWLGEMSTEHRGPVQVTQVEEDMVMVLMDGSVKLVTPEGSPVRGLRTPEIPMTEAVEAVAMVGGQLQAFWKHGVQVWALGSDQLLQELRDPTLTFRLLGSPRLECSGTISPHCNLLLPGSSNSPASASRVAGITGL
row,IC50 [nM],SMILES
1,< 0.1,"COc1nc2c(cc1Nc1ncc3cccc(-c4ccccc4F)c3n1)CN(C)CC2 [Example 4, 8-(2-fluorophenyl)-N-(2-methoxy-6-methyl-5,6,7,8-tetrahydro-1,6-naphthyridin-3-yl)quinazoline-2-amine]"
2,1.84,"COc1nc2c(cc1Nc1ncc3cccc(-c4cnn(C)c4)c3n1)CN(C)CC2 [Example 8, N-(2-methoxy-6-methyl-5,6,7,8-tetrahydro-1,6-naphthyridin-3-yl)-8-(1-methyl-1H-pyrazole-4-yl)quinazolin-2-amine]"
3,3.49,"COc1nc2c(cc1Nc1ncc3cccc(-c4cccnc4)c3n1)CN(C)CC2 [Example 9, N-(2-methoxy-6-methyl-5,6,7,8-tetrahydro-1,6-naphthyridin-3-yl)-8-(pyridin-3-yl)quinazoline-2-amine]"
4,1.48,"COc1nc2c(cc1Nc1ncc3cccc(-c4ccc(=O)n(C)c4)c3n1)CN(C)CC2 [Example 10, 5-(2-((2-methoxy-6-methyl-5,6,7,8-tetrahydro-1,6-naphthyridin-3-yl)amino)quinazolin-8-yl)-1-Methylpyridin-2(1H)-one]"
5,1.92,"CNC(=O)c1cccc(-c2cccc3cnc(Nc4cc5c(nc4OC)CCN(C)C5)nc23)c1 [Example 14, 3-(2-((2-methoxy-6-methyl-5,6,7,8-tetrahydro-1,6-naphthyridin-3-yl)amino)quinazolin-8-yl)-N-methylbenzamide]"
6,< 0.1,COc1nc2c(cc1Nc1ncc3cccc(-c4ccccc4OC(F)(F)F)c3n1)CN(C)CC2 [Example 18]
7,< 0.1,"COc1cccc(F)c1-c1cccc2cnc(Nc3cc4c(nc3OC)CCN(C)C4)nc12 [Example 21, 8-(2-fluoro-6-methoxyphenyl)-N-(2-methoxy-6-methyl-5,6,7,8-tetrahydro-1,6-naphthyridine-3-base) quinazolin-2-amine]"
8,< 0.1,"COc1nc2c(cc1Nc1ncc3cccc(N4CCCC4=O)c3n1)CN(C)CC2 [Example 24, 1-(2-((2-methoxy-6-methyl-5,6,7,8-tetrahydro-1,6-naphthyridin-3-yl)amino)quinazolin-8-yl) pyrrolidin-2-one]"
9,16.2,"COc1nc2c(cc1Nc1ncc3ccnc(-c4ccc(=O)n(C)c4)c3n1)CN(C)CC2 [Example 27, 5-(2-((2-methoxy-6-methyl-5,6,7,8-tetrahydro-1,6-naphthyridin-3-yl)amino)pyrido[3,4-d]pyrimidino-8-yl)-1-methylpyridin-2(1H)-one]"
10,0.27,"COc1nc2c(cc1Nc1ncc3cccc(-c4ccn(C)n4)c3n1)CN(C)CC2 [Example 30, N-(2-methoxy-6-methyl-5,6,7,8-tetrahydro-1,6-naphthyridin-3-yl)-8-(1-methyl-1H-pyrazole-3-yl)quinazolin-2-amine]"
11,1.66,"COc1nc2c(cc1Nc1ncc3cccc(NCC4CCOCC4)c3n1)CN(C)CC2 [Example 31, N2-(2-methoxy-6-methyl-5,6,7,8-tetrahydro-1,6-naphthyridin-3-yl)-N8-((tetrahydro-2H-pyran-4-yl)methyl)quinazoline-2,8-diamine]"
12,3.61,"COc1nc2c(cc1Nc1ncc3cccc(N4Cc5ccccc5C4=O)c3n1)CN(C)CC2 [Example 32, 2-(2-((2-methoxy-6-methyl-5,6,7,8-tetrahydro-1,6-naphthyridin-3-yl)amino)quinazolin-8-yl) isoindolin-1-one]"
13,0.52,"COc1nc2c(cc1Nc1ncc3ccnc(N4CCCCC4)c3n1)CN(C)CC2 [Example 33, N-(2-methoxy-6-methyl-5,6,7,8-tetrahydro-1,6-naphthyridin-3-yl)-8-(piperidin-1-yl) pyrido[3,4-d]pyrimidin-2-amine]"
14,0.61,"COc1nc2c(cc1Nc1ncc3ccnc(-c4cccnc4OC)c3n1)CN(C)CC2 [Example 34, N-(2-methoxy-6-methyl-5,6,7,8-tetrahydro-1,6-naphthyridin-3-yl)-8-(2-methoxypyridin-3-yl) pyrido[3,4-d]pyrimidin-2-amine]"
15,0.41,"COc1nc2c(cc1Nc1ncc3cccc(NCc4ccccc4)c3n1)CN(C)CC2 [Example 38, N8-Benzyl-N2-(2-methoxy-6-methyl-5,6,7,8-tetrahydro-1,6-naphthyridin-3-yl)quinazoline-2,8-diamine]"
16,< 0.1,"COc1nc2c(cc1Nc1ncc3cccc(NCC(C)C)c3n1)CN(C)CC2 [Example 39, N8-isobutyl-N2-(2-methoxy-6-methyl-5,6,7,8-tetrahydro-1,6-naphthyridin-3-yl)quinazoline-2,8-diamine]"

# Continued, compound first:
row,SMILES,IC50 [nM]
1,"COc1nc2c(cc1Nc1ncc3cccc(-c4ccc5c(cnn5C)c4)c3n1)CN(C)CC2 [Example 3, N-(2-methoxy-6-methyl-5,6,7,8-tetrahydro-1,6-naphthyridin-3-yl)-8-(1-methyl-1H-indazole-5-yl)quinazolin-2-amine]",< 0.1
2,"COc1ccccc1-c1cccc2cnc(Nc3cc4c(nc3OC)CCN(C)C4)nc12 [Example 5, N-(2-methoxy-6-methyl-5,6,7,8-tetrahydro-1,6-naphthyridin-3-yl)-8-(2-methoxyphenyl)quinazole Lin-2-amine]",< 0.1
3,"COc1cccc(-c2cccc3cnc(Nc4cc5c(nc4OC)CCN(C)C5)nc23)c1 [Example 6, N-(2-methoxy-6-methyl-5,6,7,8-tetrahydro-1,6-naphthyridin-3-yl)-8-(3-methoxyphenyl)quinazole Lin-2-amine]",< 0.1
4,"COc1nc2c(cc1Nc1ncc3cccc(C4=CCOCC4)c3n1)CN(C)CC2 [Example 7, 8-(3,6-dihydro-2H-pyran-4-yl)-N-(2-methoxy-6-methyl-5,6,7,8-tetrahydro-1,6-naphthalenepyridin-3-yl)quinazolin-2-amine]",1.22
5,"COc1nc2c(cc1Nc1ncc3cccc(C4CCOCC4)c3n1)CN(C)CC2 [Example 11, N-(2-methoxy-6-methyl-5,6,7,8-tetrahydro-1,6-naphthyridin-3-yl)-8-(tetrahydro-2H-pyran-4-base) quinazolin-2-amine]",1.54
6,"CNC(=O)c1ccccc1-c1cccc2cnc(Nc3cc4c(nc3OC)CCN(C)C4)nc12 [Example 12, 2-(2-((2-methoxy-6-methyl-5,6,7,8-tetrahydro-1,6-naphthyridin-3-yl)amino)quinazolin-8-yl)-N-methylbenzamide]",37.8
7,"COC(=O)c1cccc(-c2cccc3cnc(Nc4cc5c(nc4OC)CCN(C)C5)nc23)c1 [Example 13, 3-(2-((2-methoxy-6-methyl-5,6,7,8-tetrahydro-1,6-naphthyridin-3-yl)amino)quinazolin-8-yl) methyl benzoate]",< 0.1
8,"COc1nc2c(cc1Nc1ncc3cccc(C4=CCN(C(=O)OC(C)(C)C)CC4)c3n1)CN(C)CC2 [Example 15, 4-(2-((2-methoxy-6-methyl-5,6,7,8-tetrahydro-1,6-naphthyridin-3-yl)amino)quinazolin-8-yl)-3,6-Dihydropyridine-1(2H)-carboxylic acid tert-butyl ester]",9.85
9,"C=C(C)c1cccc2cnc(Nc3cc4c(nc3OC)CCN(C)C4)nc12 [Example 16, N-(2-methoxy-6-methyl-5,6,7,8-tetrahydro-1,6-naphthyridin-3-yl)-8-(prop-1-en-2-yl) quinazolin-2-amine]",1.74
10,"COc1nc2c(cc1Nc1ncc3cccc(C4=CCN(C(C)=O)CC4)c3n1)CN(C)CC2 [Example 17, 1-(4-(2-((2-methoxy-6-methyl-5,6,7,8-tetrahydro-1,6-naphthyridin-3-yl)amino)quinazoline-8-yl)-3,6-dihydropyridin-1(2H)-yl)ethan-1-one]",< 0.1
11,"COc1nc2c(cc1Nc1ncc3cccc(-c4ccccc4SC)c3n1)CN(C)CC2 [Example 19, N-(2-methoxy-6-methyl-5,6,7,8-tetrahydro-1,6-naphthyridin-3-yl)-8-(2-(methylthio)phenyl) Quinazolin-2-amine]",< 0.1
12,"COc1nc2c(cc1Nc1ncc3cccc(-c4ccccc4OCc4ccccc4)c3n1)CN(C)CC2 [Example 22, 8-(2-(benzyloxy)phenyl)-N-(2-methoxy-6-methyl-5,6,7,8-tetrahydro-1,6-naphthyridin-3-yl) quinazolin-2-amine]",5.16
13,"COc1nc2c(cc1Nc1ncc3cccc(-c4cccnc4OC)c3n1)CN(C)CC2 [Example 23, N-(2-methoxy-6-methyl-5,6,7,8-tetrahydro-1,6-naphthyridin-3-yl)-8-(2-methoxypyridin-3-yl) quinazolin-2-amine]",< 0.1
14,"COc1ccccc1-c1nccc2cnc(Nc3cc4c(nc3OC)CCN(C)C4)nc12 [Example 25, N-(2-methoxy-6-methyl-5,6,7,8-tetrahydro-1,6-naphthyridin-3-yl)-8-(2-methoxyphenyl)pyrido [3,4-d]pyrimidin-2-amine]",0.16
15,"COc1nc2c(cc1Nc1ncc3ccnc(N4CCOCC4)c3n1)CN(C)CC2 [Example 35, N-(2-methoxy-6-methyl-5,6,7,8-tetrahydro-1,6-naphthyridin-3-yl)-8-morpholinopyrido[3,4-d]pyrimidin-2-amine]",1.16
16,"COc1nc2c(cc1Nc1ncc3cccc(-c4ccccn4)c3n1)CN(C)CC2 [Example 37, N-(2-methoxy-6-methyl-5,6,7,8-tetrahydro-1,6-naphthyridin-3-yl)-8-(pyridin-2-yl)quinazoline-2-amine]",4.27
